Measured values from BindingDB's records for doi:10.7270/Q2ZC817P (The Scripps Research Institute Molecular Screening Center, 2007).

biological target: Sphingosine 1-phosphate receptor 1 (Homo sapiens, UniProt P21453); assay: S1P1 agonism potentiation – cell-based, potentiator mode, 60K MLSMR set, dose response (AID 466); settings: not given
Sequence (P21453 whole entry): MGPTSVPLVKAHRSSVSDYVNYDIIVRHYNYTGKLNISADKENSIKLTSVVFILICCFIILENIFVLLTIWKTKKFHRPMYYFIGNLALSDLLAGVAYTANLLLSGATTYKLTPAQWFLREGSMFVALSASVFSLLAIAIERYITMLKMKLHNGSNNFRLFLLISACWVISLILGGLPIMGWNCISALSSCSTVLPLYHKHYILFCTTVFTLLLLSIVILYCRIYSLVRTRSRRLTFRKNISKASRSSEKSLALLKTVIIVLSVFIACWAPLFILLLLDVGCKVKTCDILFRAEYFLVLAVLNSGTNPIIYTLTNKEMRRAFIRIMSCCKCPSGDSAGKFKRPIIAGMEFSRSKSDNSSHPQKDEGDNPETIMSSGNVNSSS

Question: Which EC50 does the source give for `COc1ccc(-c2nc(-c3cccc(C)c3)no2)cc1OC` [5-(3,4-dimethoxyphenyl)-3-(3-methylphenyl)-1,2,4-oxadiazole] here?
Answer: 1.07 µM

Question: How did the EC50 turn out when `O=C(Nc1nc2c(s1)CCCC2)c1cc2n(n1)C(C(F)(F)F)CC(C1CC1)N2` (stereo unspecified) [5-Cyclopropyl-7-trifluoromethyl-4,5,6,7-tetrahydro-pyrazolo[1,5-a]pyrimidine-2-carboxylic acid (4,5,6,7-tetrahydro-benzothiazol-2-yl)-amide] was run?
Answer: 0.908 µM

Question: How did the EC50 turn out when `COc1cc(-c2noc(C3CCCN(S(=O)(=O)c4cccc(Cl)c4)C3)n2)cc(OC)c1OC` (stereo unspecified) [1-(3-Chloro-benzenesulfonyl)-3-[3-(3,4,5-trimethoxy-phenyl)-[1,2,4]oxadiazol-5-yl]-piperidine] was run?
Answer: 2.6 µM

Question: `CCC(C)c1ccc2oc(-c3ccc(NC(=O)Cn4cnc5c(=O)n(C)c(=O)n(C)c54)cc3)nc2c1` (stereo unspecified) [2-(2,6-diketo-1,3-dimethyl-purin-9-yl)-N-[4-(5-sec-butyl-1,3-benzoxazol-2-yl)phenyl]acetamide] was tested. Which EC50 did it give?
Answer: 1.59 µM

Question: `Cn1c(SCC(=O)Nc2ccc(N3CCOCC3)c(Cl)c2)nnc1-c1ccccc1` [MLS000089171] was tested. Which EC50 did it give?
Answer: 2.06 µM

Question: Which EC50 does the source give for `Cc1nc2ccc3nc(NC(=O)C4COc5ccccc5O4)sc3c2s1` (stereo unspecified) [MLS000100909] here?
Answer: 4.01 µM

Question: For `CCCc1ccc(OCc2nc(-c3ccc(NC(=O)c4ccco4)cc3)no2)cc1` [MLS000097352], which EC50 is on record?
Answer: 4.08 µM

Question: Which EC50 does the source give for `Cc1cc(C(=O)CSc2nnc(-c3cccnc3)n2-c2ccccc2F)c(C)n1C` [SMR000064090] here?
Answer: 0.87 µM

Question: Which EC50 does the source give for `O=C(Cc1c[nH]c2ccccc12)N1CCc2ccccc21` here?
Answer: 7.74 µM

Question: Which EC50 does the source give for `O=C(C1CCCN1S(=O)(=O)c1cccc2cccnc12)N1CCN(c2ccccc2)CC1` (stereo unspecified) [(4-phenyl-1-piperazinyl)-[1-(8-quinolinylsulfonyl)-2-pyrrolidinyl]methanone] here?
Answer: > 95 µM

Question: For `Cn1c(=O)oc2cc(S(=O)(=O)N3CCCC(C(=O)N4CC=C(c5ccccc5)CC4)C3)ccc21` (stereo unspecified) [3-methyl-6-[3-(4-phenyl-3,6-dihydro-2H-pyridine-1-carbonyl)piperidin-1-yl]sulfonyl-1,3-benzoxazol-2-one], which EC50 is on record?
Answer: 9.49 µM

Question: With `COc1cc(C(=O)N2CCN(S(=O)(=O)c3ccc(C)cc3)CC2)ccc1OCc1c(C)noc1C` [MLS000056221] as the compound, how does the EC50 read?
Answer: > 95 µM

Question: `Cc1sc2ncnc(Sc3nnnn3-c3ccccc3)c2c1C` [5,6-dimethyl-4-(1-phenyltetrazol-5-yl)sulfanylthieno[2,3-d]pyrimidine] was tested. Which EC50 did it give?
Answer: > 95 µM

Question: `COc1ccc(-c2noc(-c3cccc(OC)c3OC)n2)cc1OC` [5-(2,3-dimethoxyphenyl)-3-(3,4-dimethoxyphenyl)-1,2,4-oxadiazole] was tested. Which EC50 did it give?
Answer: 1.02 µM

Question: With `COC(=O)c1cc(CSc2nnc(-c3ccccc3)c(-c3ccccc3)n2)oc1C` [5-[[(5,6-diphenyl-1,2,4-triazin-3-yl)thio]methyl]-2-methyl-3-furancarboxylic acid methyl ester] as the compound, how does the EC50 read?
Answer: 1.05 µM

Question: `COc1ccc(S(=O)(=O)Cc2ccc(C(=O)N3CCN(c4cccc(C)c4C)CC3)o2)cc1` [MLS000120226] was tested. Which EC50 did it give?
Answer: > 30 µM

Question: With `Fc1ccccc1COc1ccc(C=Nn2cnnc2)cc1` [1-[4-[(2-fluorophenyl)methoxy]phenyl]-N-(1,2,4-triazol-4-yl)methanimine] as the compound, how does the EC50 read?
Answer: 4.74 µM

Question: For `COc1ccc(-c2nc(-c3ccncc3)no2)cc1OC` [5-(3,4-dimethoxyphenyl)-3-(4-pyridyl)-1,2,4-oxadiazole], which EC50 is on record?
Answer: 1.2 µM

Question: Which EC50 does the source give for `O=C1C2CCCN2C(c2cccnc2)N1c1cccc(Cl)c1` (stereo unspecified) [2-(3-chlorophenyl)-3-(3-pyridinyl)-5,6,7,7a-tetrahydro-3H-pyrrolo[1,2-c]imidazol-1-one] here?
Answer: > 95 µM

Question: `CC(=O)c1c(C)[nH]c(C(=O)OCCCCN2C(=O)c3ccccc3C2=O)c1C` [4-acetyl-3,5-dimethyl-1H-pyrrole-2-carboxylic acid 4-(1,3-dioxo-2-isoindolyl)butyl ester] was tested. Which EC50 did it give?
Answer: 2.1 µM

Question: Which EC50 does the source give for `Cc1cc2nc(-c3ccc(NC(=O)C(C)C)cc3)oc2cc1C` [MLS000109473] here?
Answer: 2.77 µM

Question: For `CC(C)(C)SCCNS(=O)(=O)c1ccccc1` [MLS000112230], which EC50 is on record?
Answer: > 95 µM

Question: `CCCC(=O)Nc1ccc2oc(-c3ccc(OC)c(Br)c3)nc2c1` [MLS000042482] was tested. Which EC50 did it give?
Answer: 4.14 µM

Question: Which EC50 does the source give for `O=C(Nc1ccc(OC(F)F)c(Cl)c1)Nc1ccc2c(c1)OCO2` [1-(1,3-benzodioxol-5-yl)-3-[3-chloro-4-(difluoromethoxy)phenyl]urea] here?
Answer: 8.5 µM

Question: With `CCCCNc1cc(C)nc(NCc2ccccc2)n1` [2-N-benzyl-4-N-butyl-6-methylpyrimidine-2,4-diamine] as the compound, how does the EC50 read?
Answer: 5.39 µM

Question: With `Cc1cc(C)n2nc(SCC(=O)c3cc(C)n(-c4cc(C)on4)c3C)nc2n1` [1-[2,5-dimethyl-1-(5-methyl-1,2-oxazol-3-yl)pyrrol-3-yl]-2-[(5,7-dimethyl-[1,2,4]triazolo[1,5-a]pyrimidin-2-yl)sulfanyl]ethanone] as the compound, how does the EC50 read?
Answer: 5.63 µM

Question: `Clc1ccc(OCc2nnc(SCc3nc4ccccc4[nH]3)n2Cc2ccco2)cc1` [2-[[[5-[(4-chlorophenoxy)methyl]-4-(2-furanylmethyl)-1,2,4-triazol-3-yl]thio]methyl]-1H-benzimidazole] was tested. Which EC50 did it give?
Answer: 9.34 µM

Question: With `COc1ccccc1Oc1ccc2c(c1)C(=O)N(c1cccc(O)c1)C2=O` [2-(3-hydroxyphenyl)-5-(2-methoxyphenoxy)isoindole-1,3-dione] as the compound, how does the EC50 read?
Answer: 2.14 µM

Question: With `Cc1nc(NC(C)c2ccccc2)c2oc3ccccc3c2n1` (stereo unspecified) [(2-methylbenzofuro[3,2-d]pyrimidin-4-yl)-(1-phenylethyl)amine] as the compound, how does the EC50 read?
Answer: 9.78 µM

Question: Which EC50 does the source give for `CCOc1ccc(C2CC(c3cccc(OC)c3OC)n3nnnc3N2)cc1Cl` (stereo unspecified) [5-(3-chloranyl-4-ethoxy-phenyl)-7-(2,3-dimethoxyphenyl)-1,5,6,7-tetrahydro-[1,2,3,4]tetrazolo[1,5-a]pyrimidine] here?
Answer: 68.9 µM

Question: How did the EC50 turn out when `CC(C)Cc1cc(C(=O)Nc2sc3c(c2C#N)CCCC3)no1` [MLS000116410] was run?
Answer: 9.59 µM

Question: With `COc1ccccc1-c1cc(C(=O)Nc2ccccc2SC)no1` [5-(2-methoxyphenyl)-N-(2-methylsulfanylphenyl)-1,2-oxazole-3-carboxamide] as the compound, how does the EC50 read?
Answer: 5.75 µM

Question: With `O=C(Nc1nc(-c2ccc(Cl)s2)cs1)c1ccncc1` [MLS000098514] as the compound, how does the EC50 read?
Answer: > 10 µM

Question: With `Clc1ccc(CSc2nnc(-c3ccncc3)o2)cc1` [2-[(4-chlorobenzyl)thio]-5-(4-pyridyl)-1,3,4-oxadiazole] as the compound, how does the EC50 read?
Answer: 3.58 µM

Question: Which EC50 does the source give for `N#Cc1ccc(NC(=O)Nc2ccc(Cl)cc2)cc1` [1-(4-chlorophenyl)-3-(4-cyanophenyl)urea] here?
Answer: 7.91 µM

Question: For `CCOc1ccc(C(=O)Nc2ccc(Cl)cn2)cc1Cl` [3-chloranyl-N-(5-chloranylpyridin-2-yl)-4-ethoxy-benzamide], which EC50 is on record?
Answer: 4.76 µM

Question: `COC(=O)C1=CN(CCCN2CCCC2=O)C=C(C(=O)OC)C1c1ccccc1C(F)(F)F` was tested. Which EC50 did it give?
Answer: > 95 µM

Question: With `CC1Cc2ccccc2N1c1ncnc2nc[nH]c12` (stereo unspecified) [SMR000017649] as the compound, how does the EC50 read?
Answer: 7.03 µM

Question: With `O=S(=O)(NCc1cn2ccsc2n1)c1ccc(Oc2ccccc2)cc1` [MLS000094195] as the compound, how does the EC50 read?
Answer: 5 µM

Question: With `CCCCOc1ncnc2c1[nH]c1ccccc12` [MLS000041483] as the compound, how does the EC50 read?
Answer: 4.52 µM

Question: Which EC50 does the source give for `CC(C)OC(=O)CSc1nc(N)c(C#N)c(-c2cccs2)c1C#N` [2-[(6-amino-3,5-dicyano-4-thiophen-2-yl-2-pyridinyl)thio]acetic acid propan-2-yl ester] here?
Answer: > 30 µM

Question: How did the EC50 turn out when `CCOc1ccccc1OCCCCCc1c(C)n[nH]c1C` [MLS000043342] was run?
Answer: 1.27 µM

Question: With `CCOc1ccc(-c2nc(-c3ccc(OC)cc3)no2)cc1OCC` [5-(3,4-Diethoxy-phenyl)-3-(4-methoxy-phenyl)-[1,2,4]oxadiazole] as the compound, how does the EC50 read?
Answer: 0.732 µM

Question: How did the EC50 turn out when `CCOC(=O)N1CCN(C(=O)C2CCN(c3ncnc4c3sc3cccc(F)c34)CC2)CC1` [4-[1-(9-fluorobenzothiopheno[3,2-d]pyrimidin-4-yl)isonipecotoyl]piperazine-1-carboxylic acid ethyl ester] was run?
Answer: 6.63 µM

Question: For `CCC(NC(C)c1ccccc1)=C1C(=O)N(C)C(=O)N(C)C1=O` (stereo unspecified) [SMR000043429], which EC50 is on record?
Answer: 14.4 µM

same assay, conditions: inactive by the depositor's call

Question: `Cc1ccc(-c2nc(COC(=O)c3c(C)noc3C)cs2)cc1` [3,5-dimethyl-4-isoxazolecarboxylic acid [2-(4-methylphenyl)-4-thiazolyl]methyl ester] was tested. Which EC50 did it give?
Answer: 27.9 µM

Question: Which EC50 does the source give for `O=C(Nc1ccc(Oc2ccccc2)cc1)c1cnc2n(c1=O)CCS2` [5-keto-N-(4-phenoxyphenyl)-2,3-dihydrothiazolo[3,2-a]pyrimidine-6-carboxamide] here?
Answer: 19.9 µM

Question: How did the EC50 turn out when `COc1ccc(-n2c(C)c(C(C)=O)c3cc(O)ccc32)cc1` [1-[1-(4-methoxyphenyl)-2-methyl-5-oxidanyl-indol-3-yl]ethanone] was run?
Answer: 24.2 µM

Question: For `CC(=O)c1ccc(N2CCN(c3ccc(C(F)(F)F)cn3)CC2)cc1` [1-[4-[4-[5-(trifluoromethyl)-2-pyridinyl]-1-piperazinyl]phenyl]ethanone], which EC50 is on record?
Answer: 37 µM

Question: `CCN(CC)C(=O)Oc1ccc2c(=O)c(-c3ccccc3)coc2c1` [(4-oxidanylidene-3-phenyl-chromen-7-yl) N,N-diethylcarbamate] was tested. Which EC50 did it give?
Answer: 27.2 µM

Question: With `CCCOC(=O)c1[nH]c2c(c1C)C(=O)CC(c1cc(OC)c(OC)c(OC)c1)C2` (stereo unspecified) [MLS000116504] as the compound, how does the EC50 read?
Answer: 12.9 µM

Question: `CCN(CC)C(=O)Oc1ccc2c(=O)c(-c3ccc(OC)cc3)coc2c1` [MLS000083046] was tested. Which EC50 did it give?
Answer: 10.9 µM

Question: `CSc1ccc(S(=O)(=O)Nc2ccc3c(c2)OCCO3)cc1` [MLS000115922] was tested. Which EC50 did it give?
Answer: 18 µM

Question: Which EC50 does the source give for `O=C(Nc1nc(-c2ccc3c(c2)OCO3)cs1)c1ccncc1` [MLS000073104] here?
Answer: 12 µM

Question: Which EC50 does the source give for `O=C(Nc1nc(-c2nc3ccccc3s2)cs1)c1ccc(S(=O)(=O)N2CCOCC2)cc1` [MLS000087900] here?
Answer: 15.5 µM

Question: For `COc1ccc2c(c1)CCc1c(C(=O)NC3CCCCC3)noc1-2` [MLS000087437], which EC50 is on record?
Answer: 88.9 µM

Question: How did the EC50 turn out when `Cc1nc2ncnn2c(N2CCN(c3cccc(C(F)(F)F)c3)CC2)c1C` [5,6-Dimethyl-7-[4-(3-trifluoromethyl-phenyl)-piperazin-1-yl]-[1,2,4]triazolo[1,5-a]pyrimidine] was run?
Answer: 15.4 µM

Question: How did the EC50 turn out when `CC(=O)N1C=CN(C(C)=O)C(c2cn(C)c3ccccc23)C1c1cn(C)c2ccccc12` (stereo unspecified) [1-[4-acetyl-2,3-bis(1-methyl-3-indolyl)-2,3-dihydropyrazin-1-yl]ethanone] was run?
Answer: 20.9 µM

Question: How did the EC50 turn out when `C=CCn1c(SCC(=O)c2cccs2)nc2sc(CC)cc2c1=O` [3-allyl-6-ethyl-2-[[2-keto-2-(2-thienyl)ethyl]thio]thieno[2,3-d]pyrimidin-4-one] was run?
Answer: 38.8 µM

Question: With `Cc1ccccc1OCC(=O)Nc1ccc(N2CCN(C(=O)C(C)C)CC2)c(Cl)c1` [MLS000034491] as the compound, how does the EC50 read?
Answer: 15.2 µM

Question: For `Cc1ccc(Cl)cc1N1CCN(C(=O)C2CCN(c3nnc(-n4cccc4)s3)CC2)CC1` [MLS000119702], which EC50 is on record?
Answer: 43.3 µM
